PubChem BioAssay AID2060896 (Molecular Pharmacology Branch, DTP, NCI, 2025)

Test system: 941728-121-R-J1-PDC complex spheroid viability
Experiment: Anticancer human tumor 941728-121-R-J1-PDC patient-derived lung adenocarcinoma cell line growth inhibition [RAS]
Details: for IC50: curve of first compound; for viability, T/C: stronger effect = lower value
Procedure, shortened: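 Agents were tested in combination matrices in half-log decrements from a top concentration at or near clinical Cmax (10 microM if undetermined). Targets were multi-cell spheroids of tumour lines plus HUVEC and MSC stromal cells.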

[1] = second compound 0.0316 µM, first compound 0.00316 µM
[2] = second compound 0.0316 µM, first compound 0.01 µM
[3] = second compound 0.0316 µM, first compound 0.0316 µM
[4] = second compound 0.0316 µM, first compound 0.1 µM
[5] = second compound 0.0316 µM, first compound 0.316 µM
[6] = second compound 0.0316 µM, first compound 1 µM
[7] = second compound 0.1 µM, first compound 0.00316 µM
[8] = second compound 0.1 µM, first compound 0.01 µM
[9] = second compound 0.1 µM, first compound 0.0316 µM
[10] = second compound 0.1 µM, first compound 0.1 µM
[11] = second compound 0.1 µM, first compound 0.316 µM
[12] = second compound 0.1 µM, first compound 1 µM
[13] = second compound 0.316 µM, first compound 0.00316 µM
[14] = second compound 0.316 µM, first compound 0.01 µM
[15] = second compound 0.316 µM, first compound 0.0316 µM
[16] = second compound 0.316 µM, first compound 0.1 µM
[17] = second compound 0.316 µM, first compound 0.316 µM
[18] = second compound 0.316 µM, first compound 1 µM
[19] = second compound 1 µM, first compound 0.00316 µM
[20] = second compound 1 µM, first compound 0.01 µM
[21] = second compound 1 µM, first compound 0.0316 µM
[22] = second compound 1 µM, first compound 0.1 µM
[23] = second compound 1 µM, first compound 0.316 µM
[24] = second compound 1 µM, first compound 1 µM
[25] = second compound 3.16 µM, first compound 0.00316 µM
[26] = second compound 3.16 µM, first compound 0.01 µM
[27] = second compound 3.16 µM, first compound 0.0316 µM
[28] = second compound 3.16 µM, first compound 0.1 µM
[29] = second compound 3.16 µM, first compound 0.316 µM
[30] = second compound 3.16 µM, first compound 1 µM
[31] = second compound 10 µM, first compound 0.00316 µM
[32] = second compound 10 µM, first compound 0.01 µM
[33] = second compound 10 µM, first compound 0.0316 µM
[34] = second compound 10 µM, first compound 0.1 µM
[35] = second compound 10 µM, first compound 0.316 µM
[36] = second compound 10 µM, first compound 1 µM
[37] = second compound 0.000949 µM, first compound 0.0316 µM
[38] = second compound 0.000949 µM, first compound 0.1 µM
[39] = second compound 0.000949 µM, first compound 0.316 µM
[40] = second compound 0.000949 µM, first compound 1 µM
[41] = second compound 0.000949 µM, first compound 3.16 µM
[42] = second compound 0.000949 µM, first compound 10 µM
[43] = second compound 0.003 µM, first compound 0.0316 µM
[44] = second compound 0.003 µM, first compound 0.1 µM
[45] = second compound 0.003 µM, first compound 0.316 µM
[46] = second compound 0.003 µM, first compound 1 µM
[47] = second compound 0.003 µM, first compound 3.16 µM
[48] = second compound 0.003 µM, first compound 10 µM
[49] = second compound 0.00949 µM, first compound 0.0316 µM
[50] = second compound 0.00949 µM, first compound 0.1 µM
[51] = second compound 0.00949 µM, first compound 0.316 µM
[52] = second compound 0.00949 µM, first compound 1 µM
[53] = second compound 0.00949 µM, first compound 3.16 µM
[54] = second compound 0.00949 µM, first compound 10 µM
[55] = second compound 0.03 µM, first compound 0.0316 µM
[56] = second compound 0.03 µM, first compound 0.1 µM
[57] = second compound 0.03 µM, first compound 0.316 µM
[58] = second compound 0.03 µM, first compound 1 µM
[59] = second compound 0.03 µM, first compound 3.16 µM
[60] = second compound 0.03 µM, first compound 10 µM
[61] = second compound 0.0949 µM, first compound 0.0316 µM
[62] = second compound 0.0949 µM, first compound 0.1 µM
[63] = second compound 0.0949 µM, first compound 0.316 µM
[64] = second compound 0.0949 µM, first compound 1 µM
[65] = second compound 0.0949 µM, first compound 3.16 µM
[66] = second compound 0.0949 µM, first compound 10 µM
[67] = second compound 0.3 µM, first compound 0.0316 µM
[68] = second compound 0.3 µM, first compound 0.1 µM
[69] = second compound 0.3 µM, first compound 0.316 µM
[70] = second compound 0.3 µM, first compound 1 µM
[71] = second compound 0.3 µM, first compound 3.16 µM
[72] = second compound 0.3 µM, first compound 10 µM
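Also: spheroids exposed to compounds for 7 days before readout.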
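For viability, T/C in this document: 100% = DMSO vehicle control viability.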

SMILES: C=CC(=O)Nc1cc(Nc2nccc(-c3cn(C)c4ccccc34)n2)c(OC)cc1N(C)CCN(C)C + C#Cc1c(F)ccc2cc(O)cc(-c3ncc4c(N5CC6CCC(C5)N6)nc(OCC56CCCN5CC(F)C6)nc4c3F)c12
- IC50 (second compound 0.0316 µM): 142 nM
- IC50 (second compound 0.1 µM): 54.7 nM
- IC50 (second compound 0.316 µM): 16.8 nM
- IC50 (second compound 1 µM): < 3.16 nM
- IC50 (second compound 3.16 µM): < 3.16 nM
- IC50 (second compound 10 µM): < 3.16 nM
- viability, T/C [1]: 79.4%
- viability, T/C [2]: 70.4%
- viability, T/C [3]: 61.4%
- viability, T/C [4]: 51%
- viability, T/C [5]: 44.9%
- viability, T/C [6]: 39.5%
- viability, T/C [7]: 78.5%
- viability, T/C [8]: 65.6%
- viability, T/C [9]: 58%
- viability, T/C [10]: 40.9%
- viability, T/C [11]: 42.1%
- viability, T/C [12]: 36.4%
- viability, T/C [13]: 56.1%
- viability, T/C [14]: 57.7%
- viability, T/C [15]: 41.7%
- viability, T/C [16]: 36.6%
- viability, T/C [17]: 32.8%
- viability, T/C [18]: 33.8%
- viability, T/C [19]: 35.2%
- viability, T/C [20]: 39.1%
- viability, T/C [21]: 31.6%
- viability, T/C [22]: 29.2%
- viability, T/C [23]: 29.5%
- viability, T/C [24]: 30%
- viability, T/C [25]: 30.3%
- viability, T/C [26]: 26.5%
- viability, T/C [27]: 26.5%
- viability, T/C [28]: 26.1%
- viability, T/C [29]: 26%
- viability, T/C [30]: 24.6%
- viability, T/C [31]: 22.1%
- viability, T/C [32]: 22.3%
- viability, T/C [33]: 19.7%
- viability, T/C [34]: 19.3%
- viability, T/C [35]: 20%
- viability, T/C [36]: 17.5%

SMILES: CC(C)NCC(C(=O)N1CCN(c2ncnc3c2C(C)CC3O)CC1)c1ccc(Cl)cc1 (stereo not drawn) + CCn1c(-c2cc(N3CCN(C)CC3)cnc2C(C)OC)c2c3cc(ccc31)-c1csc(n1)CC(NC(=O)C1CC1C)C(=O)N1CCCC(N1)C(=O)OCC(C)(C)C2
- IC50 (second compound 0.000949 µM): < 31.6 nM
- IC50 (second compound 0.003 µM): < 31.6 nM
- IC50 (second compound 0.00949 µM): < 31.6 nM
- IC50 (second compound 0.03 µM): < 31.6 nM
- IC50 (second compound 0.0949 µM): < 31.6 nM
- IC50 (second compound 0.3 µM): < 31.6 nM
- viability, T/C [37]: 28.7%
- viability, T/C [38]: 28.3%
- viability, T/C [39]: 18.8%
- viability, T/C [40]: 20.1%
- viability, T/C [41]: 19%
- viability, T/C [42]: 10.4%
- viability, T/C [43]: 22.7%
- viability, T/C [44]: 23.5%
- viability, T/C [45]: 16.5%
- viability, T/C [46]: 20.5%
- viability, T/C [47]: 14.6%
- viability, T/C [48]: 8.01%
- viability, T/C [49]: 17.7%
- viability, T/C [50]: 14.9%
- viability, T/C [51]: 15.2%
- viability, T/C [52]: 12.3%
- viability, T/C [53]: 9.47%
- viability, T/C [54]: 5.47%
- viability, T/C [55]: 13.1%
- viability, T/C [56]: 14%
- viability, T/C [57]: 14.2%
- viability, T/C [58]: 11.3%
- viability, T/C [59]: 8.42%
- viability, T/C [60]: 4.92%
- viability, T/C [61]: 12.4%
- viability, T/C [62]: 13.6%
- viability, T/C [63]: 11.9%
- viability, T/C [64]: 12.1%
- viability, T/C [65]: 5.65%
- viability, T/C [66]: 5.14%
- viability, T/C [67]: 11.1%
- viability, T/C [68]: 14.2%
- viability, T/C [69]: 13.5%
- viability, T/C [70]: 10%
- viability, T/C [71]: 8.91%
- viability, T/C [72]: 4.65%

SMILES: CCC(CC)c1cc(NC2CCC(N)C2)n2nccc2n1 (stereo not drawn) + CCn1c(-c2cccnc2C(C)OC)c2c3cc(ccc31)N1CCOC(CC(NC(=O)C(C(C)C)N(C)C(=O)C3(F)CCN(C(=O)C#CC(C)(C)N(C)C)CC3)C(=O)N3CCCC(N3)C(=O)OCC(C)(C)C2)C1
- IC50 (second compound 0.000949 µM): < 31.6 nM
- IC50 (second compound 0.003 µM): < 31.6 nM
- IC50 (second compound 0.00949 µM): < 31.6 nM
- IC50 (second compound 0.03 µM): < 31.6 nM
- IC50 (second compound 0.0949 µM): < 31.6 nM
- IC50 (second compound 0.3 µM): < 31.6 nM
- viability, T/C [37]: 24.2%
- viability, T/C [38]: 25.9%
- viability, T/C [39]: 22.9%
- viability, T/C [40]: 31.1%
- viability, T/C [41]: 14.9%
- viability, T/C [42]: 32.4%
- viability, T/C [43]: 23.2%
- viability, T/C [44]: 24.3%
- viability, T/C [45]: 23%
- viability, T/C [46]: 29.3%
- viability, T/C [47]: 12.1%
- viability, T/C [48]: 39%
- viability, T/C [49]: 25.1%
- viability, T/C [50]: 23.2%
- viability, T/C [51]: 24.5%
- viability, T/C [52]: 31.1%
- viability, T/C [53]: 13.7%
- viability, T/C [54]: 40.9%
- viability, T/C [55]: 23%
- viability, T/C [56]: 25.1%
- viability, T/C [57]: 27.3%
- viability, T/C [58]: 33.5%
- viability, T/C [59]: 14.6%
- viability, T/C [60]: 45%
- viability, T/C [61]: 21.5%
- viability, T/C [62]: 24.5%
- viability, T/C [63]: 29%
- viability, T/C [64]: 32.5%
- viability, T/C [65]: 16.1%
- viability, T/C [66]: 48.7%
- viability, T/C [67]: 23.3%
- viability, T/C [68]: 26.9%
- viability, T/C [69]: 31.1%
- viability, T/C [70]: 33.1%
- viability, T/C [71]: 13.1%
- viability, T/C [72]: 44.8%

SMILES: CCN1CCN(Cc2ccc(Nc3ncc(F)c(-c4cc(F)c5nc(C)n(C(C)C)c5c4)n3)nc2)CC1 + C#Cc1c(F)ccc2cc(O)cc(-c3ncc4c(N5CC6CCC(C5)N6)nc(OCC56CCCN5CC(F)C6)nc4c3F)c12
- IC50 (second compound 0.0316 µM): > 1000 nM
- IC50 (second compound 0.1 µM): > 1000 nM
- IC50 (second compound 0.316 µM): > 1000 nM
- IC50 (second compound 1 µM): < 3.16 nM
- IC50 (second compound 3.16 µM): < 3.16 nM
- IC50 (second compound 10 µM): < 3.16 nM
- viability, T/C [1]: 75.4%
- viability, T/C [2]: 70.4%
- viability, T/C [3]: 58%
- viability, T/C [4]: 49%
- viability, T/C [5]: 58%
- viability, T/C [6]: 59.7%
- viability, T/C [7]: 71.4%
- viability, T/C [8]: 62%
- viability, T/C [9]: 52.9%
- viability, T/C [10]: 46.7%
- viability, T/C [11]: 55.9%
- viability, T/C [12]: 68.9%
- viability, T/C [13]: 55.6%
- viability, T/C [14]: 56.8%
- viability, T/C [15]: 38.3%
- viability, T/C [16]: 45.2%
- viability, T/C [17]: 51%
- viability, T/C [18]: 57.3%
- viability, T/C [19]: 38.2%
- viability, T/C [20]: 34.7%
- viability, T/C [21]: 31.4%
- viability, T/C [22]: 35.5%
- viability, T/C [23]: 41.7%
- viability, T/C [24]: 50.1%
- viability, T/C [25]: 28.8%
- viability, T/C [26]: 26.4%
- viability, T/C [27]: 31.3%
- viability, T/C [28]: 25.3%
- viability, T/C [29]: 30.9%
- viability, T/C [30]: 36.2%
- viability, T/C [31]: 23.5%
- viability, T/C [32]: 20.9%
- viability, T/C [33]: 21.9%
- viability, T/C [34]: 19.8%
- viability, T/C [35]: 18.4%
- viability, T/C [36]: 16.5%
